Reference: US9096598B2 (Merck Sharp & Dohme Corp., priority 2011, dated 2015)

Assays:
JAK3 = molecular target: T1, JAK3 (Homo sapiens, UniProt P52333); assay: Jak Biochemical HTRF Assay (JAK3); details: recombinant purified GST-tagged catalytic domain, [ATP] 2.9 μM, values given as range classes
T1 construct: recombinant purified GST-tagged catalytic domain for each enzyme; purchased Invitrogen M4290
Procedure: (§1) Jak Biochemical HTRF Assay Protocol
(§2) The ability of compounds to inhibit the activity of JAK1, JAK2, JAK3, and Tyk2 was measured using a recombinant purified GST-tagged catalytic domain for each enzyme (Invitrogen JAK1 #M4290, JAK2 #M4290, JAK3 #M4290, Tyk2 #M4290) in an HTRF format biochemical assay. The reactions employed a common peptide substrate, LCB-EQEDEPEGDYFEWLW-NH2 (in-house). The basic assay protocol is as follows: First, 250 nL of diluted compounds in DMSO were dispensed into the wells of a dry 384-well Black plate (Greiner #781076) using a Labcyte Echo 555 acoustic dispenser. Subsequent reagent additions employed an Agilent Bravo. Next, 18 μL of 1.11× enzyme and 1.11× substrate in 1× assay buffer (Invitrogen kinase buffer #PV3189, 2 mM DTT, 0.05% BSA) were added to the wells and shaken and then preincubated for 30 minutes at room temperature to allow compound binding to equilibrate. After equilibration, 2 μL of 10×ATP in 1× assay buffer was added to initiate the kinase reaction and the plates were shaken and then incubated at room temperature for 120 minutes. At the end of the incubation, 20 μL of 2× stop buffer (streptavidin-Dylight 650 (Thermo #84547B/100 mL), Eu-tagged pY20 antibody (Perkin Elmer #AD0067), EDTA, HEPES, and Triton) was added to quench the reaction. Plates were shaken and centrifuged and then incubated 60 minutes at room temperature and then read on a Perkin Elmer Envision (λex=337 nm, λem=665 and 615 nm, TRF delay time=20 μs). HTRF signal=10,000*665 nm reading/615 nm reading. After normalization to untreated controls, the percent inhibition of the HTRF signal at each compound concentration was calculated. The plot of percent inhibition versus the log of compound concentration was fit with a 4-parameter dose response equation to calculate IC50 values.
(§3) Final reaction conditions were:
(§4) Examples of the instant invention were evaluated in JAK2 and JAK3 in vitro binding assays. Table 13 tabulates the biological data disclosed for the instant invention as a range of JAK2 and JAK3 IC50 values (A: IC50≦10 nM; B: 10 nM>IC50≦500 nM C: IC50>500 nM).

JAK2 = molecular target: T2, JAK2 (Homo sapiens, UniProt O60674); assay: Jak Biochemical HTRF Assay (JAK2); details: recombinant purified GST-tagged catalytic domain, [ATP] 8.5 μM, values given as range classes
T2 construct: recombinant purified GST-tagged catalytic domain for each enzyme; purchased Invitrogen M4290
T2 sequence (O60674 849-1124 limits assumed): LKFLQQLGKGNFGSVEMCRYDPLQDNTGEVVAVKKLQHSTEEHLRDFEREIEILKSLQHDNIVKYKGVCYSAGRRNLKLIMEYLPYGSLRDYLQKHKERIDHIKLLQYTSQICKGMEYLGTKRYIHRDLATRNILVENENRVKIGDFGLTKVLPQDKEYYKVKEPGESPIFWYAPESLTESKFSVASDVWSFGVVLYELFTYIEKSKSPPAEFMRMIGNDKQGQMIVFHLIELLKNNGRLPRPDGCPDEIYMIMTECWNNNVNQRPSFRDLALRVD
Procedure: as §1, §2, §3, §4

T1 sequence (P52333 822-1111 limits assumed): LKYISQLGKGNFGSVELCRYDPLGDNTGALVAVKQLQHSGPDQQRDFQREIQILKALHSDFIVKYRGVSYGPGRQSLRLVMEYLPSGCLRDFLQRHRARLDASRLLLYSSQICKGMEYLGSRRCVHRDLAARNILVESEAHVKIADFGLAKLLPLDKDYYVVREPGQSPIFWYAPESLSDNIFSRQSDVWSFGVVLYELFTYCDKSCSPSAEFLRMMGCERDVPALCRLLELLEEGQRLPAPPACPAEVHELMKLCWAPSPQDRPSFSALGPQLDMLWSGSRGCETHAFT

IC50 (JAK3) [nM] | IC50 (JAK2) [nM] | Structure (SMILES)
≤ 10 | 10 to 500 | COc1cnc2[nH]cc(-c3cncc(N[C@H](C(=O)NCC(F)(F)F)C(C)C)c3)c2c1 [Example 1-45, N~2~-[5-(5-methoxy-1H-pyrrolo[2,3-b]pyridin-3-yl)pyridin-3-yl]-N-(2,2,2-trifluoroethyl)valinamide]
≤ 10 | 10 to 500 | CC(C)[C@H](Nc1cncc(-c2c[nH]c3ncc(OCCc4ccccn4)cc23)c1)C(=O)NCC(F)(F)F [Example 2-12, N~2~-{5-[5-(2-pyridin-2-ylethoxy)-1H-pyrrolo[2,3-b]pyridin-3-yl]pyridin-3-yl}-N-(2,2,2-trifluoroethyl)valinamide]
≤ 10 | 10 to 500 | CC(C)C(Nc1cncc(-c2c[nH]c3ncc(OC4CCN(C)CC4)cc23)c1)C(=O)NCC(F)(F)F (centres unmarked) [Example 2-16, N~2~-(5-{5-[(1-methylpiperidin-4-yl)oxy]-1H-pyrrolo[2,3-b]pridin-3-yl}pyridin-3-yl)-N-(2,2,2-trifluoroethyl)valinamide]
10 to 500 | 10 to 500 | N#Cc1cnc2[nH]cc(-c3nncc(N4CCCC4c4nccs4)n3)c2c1 (centres unmarked) [Example 1-12, 3-{5-[2-(1,3-thiazol-2-yl)pyrrolidin-1-yl]-1,2,4-triazin-3-yl}-1H-pyrrolo[2,3-b]pyridine-5-carbonitrile]
≤ 10 | 10 to 500 | COc1cnc2[nH]cc(-c3cncc(N[C@@H](C(=O)NCC(F)(F)F)C(C)(C)O)c3)c2c1 [Example 1-50, 3-hydroxy-N~2~-[5-(5-methoxy-1H-pyrrolo[2,3-b]pyridin-3-yl)pyridin-3-yl]-N-(2,2,2-trifluoroethyl)-D-valinamide]
≤ 10 | 10 to 500 | Clc1cnc2[nH]cc(-c3cncc(N4CCCC4c4nccs4)c3)c2c1 (centres unmarked) [Example 1-28, 5-chloro-3-{5-[2-(1,3-thiazol-2-yl)pyrrolidin-1-yl]pyridin-3-yl}-1H-pyrrolo[2,3-b]pyridine]
≤ 10 | 10 to 500 | COCC(C)NC(=O)c1cnc2[nH]cc(-c3cncc(N[C@@H](C(=O)NCC(F)(F)F)C(C)C)c3)c2c1 (stereo partly drawn) [Example 3-3, N-(2-methoxy-1-methylethyl)-3-[5-({(1R)-2-methyl-1-[(2,2,2-trifluoroethyl)carbamoyl]propyl}amino)pyridin-3-yl]-1H-pyrrolo[2,3-b]pyridine-5-carboxamide]
≤ 10 | 10 to 500 | CC(C)[C@@H](Nc1cncc(-c2c[nH]c3ncc(C(=O)NCc4ccn[nH]4)cc23)c1)C(=O)NCC(F)(F)F [Example 3-10, 3-[5-({(1R)-2-methyl-1-[(2,2,2-trifluoroethyl)carbamoyl]propyl}amino)pyridin-3-yl]-N-(1H-pyrazol-5-ylmethyl)-1H-pyrrolo[2,3-b]pyridine-5-carboxamide]
≤ 10 | 10 to 500 | CC(C)[C@H](Nc1cncc(-c2c[nH]c3ncc(OCc4cccnc4)cc23)c1)C(=O)NCC(F)(F)F [Example 2-11, N~2~-{5-[5-(pyridin-3-ylmethoxy)-1H-pyrrolo[2,3-b]pyridin-3-yl]pyridin-3-yl}-N-(2,2,2-trifluoroethyl)valinamide]
≤ 10 | 10 to 500 | CC(C)C(Nc1cncc(-c2c[nH]c3ncc(NC(=O)N[C@@H](C)C(=O)O)cc23)c1)C(=O)NCC(F)(F)F (some centres unmarked) [Example 6-4, N-({3-[5-({2-methyl-1-[(2,2,2-trifluoroethyl)carbamoyl]propyl}amino)pyridin-3-yl]-1H-pyrrolo[2,3-b]pyridin-5-yl}carbamoyl)alanine]
10 to 500 | > 500 | CC(C)[C@@H](Nc1cncc(-c2c[nH]c3ncc(C(=O)N(C)C(C)c4ccn[nH]4)cc23)c1)C(=O)NCC(F)(F)F (stereo partly drawn) [Example 3-11, N-methyl-3-[5-({(1R)-2-methyl-1-[(2,2,2-trifluoroethyl)carbamoyl]propyl}amino)pyridin-3-yl]-N-[1-(1H-pyrazol-5-yl)ethyl]-1H-pyrrolo[23-b]pyridine-5-carboxamide]
10 to 500 | 10 to 500 | Clc1cnc2[nH]cc(-c3cc(N4CCCC4c4nccs4)cnn3)c2c1 (centres unmarked) [Example 1-26, 5-chloro-3-{5-[2-(1,3-thiazol-2-yl)pyrrolidin-1-yl]pyridazin-3-yl}-1H-pyrrolo[2,3-b]pyridine]
10 to 500 | > 500 | CCC(=O)NCc1cnc2[nH]cc(-c3cncc(N[C@H](C(=O)NCC(F)(F)F)C(C)C)c3)c2c1 [Example 10-2, N~2~-(5-{5-[(propanoylamino)methyl]-1H-pyrrolo[2,3-b]pyridin-3-yl}pyridin-3-yl)-N-(2,2,2-trifluoroethyl)valinamide]
≤ 10 | 10 to 500 | CC(C)(Nc1cncc(-c2c[nH]c3ncc(C(N)=O)cc23)c1)C(=O)NCC(F)(F)F [Example 1-47, 3-[5-({1,1-dimethyl-2-oxo-2-[(2,2,2-trifluoroethyl)amino]ethyl}amino)pyridin-3-yl]-1H-pyrrolo[2,3-b]pyridine-5-carboxamide]
≤ 10 | 10 to 500 | C[C@@H](Nc1cnnc(-c2c[nH]c3ncc(C#N)cc23)n1)C(=O)NCC(F)(F)F [Example 1-9, N~2~-[3-(5-cyano-1H-pyrrolo[2,3-b]pyridin-3-yl)-1,2,4-triazin-5-yl]-N-(2,2,2-trifluoroethyl)-D-alaninamide]
10 to 500 | 10 to 500 | N#Cc1cnc2[nH]cc(-c3nncc(N[C@@H]4CCCC[C@@H]4C(=O)NCC(F)(F)F)n3)c2c1 [Example 1-22, (1S,2R)-2-{[3-(5-cyano-1H-pyrrolo[2,3-b]pyridin-3-yl)-1,2,4-triazin-5-yl]amino}-N-(2,2,2-trifluoroethyl)cyclohexane-carboxamide]
≤ 10 | 10 to 500 | CC(C)Oc1cnc2[nH]cc(-c3cncc(N[C@@H](C(=O)NCC(F)(F)F)C(C)C)c3)c2c1 [Example 2-3, N~2~-{5-[5-(1-methylethoxy)-1H-pyrrolo[2,3-b]pyridin-3-yl]pyridin-3-yl}-N-(2,2,2-trifluoroethyl)-D-valinamide]
≤ 10 | 10 to 500 | CC(C)[C@@H](Nc1cncc(-c2c[nH]c3ncc(Cl)cc23)c1)C(=O)NCC(F)(F)F (single isomer, unassigned) [Example 1-1]
≤ 10 | 10 to 500 | CC(C)[C@H](Nc1cncc(-c2c[nH]c3ncc(NC(=O)CO)cc23)c1)C(=O)NCC(F)(F)F [Example 5-7, N~2~-(5-{5-[(hydroxyacetyl)amino]-1H-pyrrolo[2,3-b]pyridin-3-yl}pyridin-3-yl)-N-(2,2,2-trifluoroethyl)valinamide]
10 to 500 | > 500 | CC(C)[C@@H](Nc1cncc(-c2c[nH]c3ncc(C(=O)N(C)C)cc23)c1)C(=O)NCC(F)(F)F [Example 3-1, (R)—N,N-dimethyl-3-(5-(3-methyl-1-oxo-1-(2,2,2-trifluoroethylamino)butan-2-ylamino)pyridin-3-yl)-1H-pyrrolo[2,3-b]pyridine-5-carboxamide]
10 to 500 | > 500 | CC(C)[C@H](Nc1cncc(-c2c[nH]c3ncc(CNC(=O)N4CCCC4)cc23)c1)C(=O)NCC(F)(F)F [Example 10-11, N~2~-[5-(5-{[(pyrrolidin-1-ylcarbonyl)amino]methyl}-1H-pyrrolo[2,3-b]pyridin-3-yl)pyridin-3-yl]-N-(2,2,2-trifluoroethyl)valinamide]
10 to 500 | 10 to 500 | NC(=O)c1cnc2[nH]cc(-c3nncc(N[C@@H]4CCCC[C@@H]4C(=O)NCC(F)(F)F)n3)c2c1 [Example 1-23, 3-[5-({(1R,2S)-2-[(2,2,2-trifluoroethyl)carbamoyl]cyclo-hexyl}amino)-1,2,4-triazin-3-yl]-1H-pyrrolo[2,3-b]pyridine-5-carboxamide]
≤ 10 | 10 to 500 | CC(C)[C@H](Nc1cncc(-c2c[nH]c3ncc(OCC4CC4)cc23)c1)C(=O)NCC(F)(F)F [Example 2-6, N~2~-{5-[5-(cyclopropylmethoxy)-1H-pyrrolo[2,3-b]pyridin-3-yl]pyridin-3-yl}-N-(2,2,2-trifluoroethyl)valinamide]
10 to 500 | > 500 | CC(=O)NCc1cnc2[nH]cc(-c3cncc(N[C@H](C(=O)NCC(F)(F)F)C(C)C)c3)c2c1 [Example 10-5, N~2~-(5-{5-[(acetylamino)methyl]-1H-pyrrolo[2,3-b]pyridin-3-yl}pyridin-3-yl)-N-(2,2,2-trifluoroethyl)valinamide]
≤ 10 | 10 to 500 | CCC(=O)Nc1cnc2[nH]cc(-c3cncc(NC(C(=O)NCC(F)(F)F)C(C)C)c3)c2c1 (centres unmarked) [Example 5-6, N^2-{5-[5-(propanoylamino)-1H-pyrrolo[2,3-b]pyridin-7-ium-3-yl]pyridin-3-yl}-N-(2,2,2-trifluoroethyl)valinamide]
